# Experimental data as given in patent publication US7265130B2, “NPY Y5 antagonist” (Shionogi & Co., Ltd., priority 1999, dated 2007).
# Experiments:
# NPY Y2 receptor = molecular target: T1, NPY Y2 receptor (Homo sapiens, UniProt P49146); experiment: Affinity for NPY Y2 receptor (membranes from SMS-KAN cells); details: membranes from Y2-expression cells (human neuroblastoma, SMS-KAN); read-out: Binding IC50 for NPY Y2 receptor
# T1 construct: membranes prepared from Y2-expression cells (human neuroblastoma, SMS-KAN); endogenous in cells; host or cells: SMS-KAN human neuroblastoma cells (membranes)
# T1 sequence (P49146 1-381): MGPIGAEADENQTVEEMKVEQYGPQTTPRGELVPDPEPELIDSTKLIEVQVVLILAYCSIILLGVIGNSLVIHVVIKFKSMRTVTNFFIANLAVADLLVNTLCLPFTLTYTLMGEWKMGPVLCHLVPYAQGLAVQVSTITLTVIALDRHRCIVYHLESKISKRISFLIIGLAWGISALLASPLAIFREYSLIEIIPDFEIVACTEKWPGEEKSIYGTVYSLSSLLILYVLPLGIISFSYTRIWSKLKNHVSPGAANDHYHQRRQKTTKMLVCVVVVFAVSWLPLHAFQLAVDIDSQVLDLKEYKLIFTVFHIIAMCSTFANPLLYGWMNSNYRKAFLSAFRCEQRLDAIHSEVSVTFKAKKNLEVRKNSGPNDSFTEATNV
# Procedure: (§1) The membranes prepared from the above CHO cells expressing NPY Y5 receptor, the compound of the present invention and 30,000 cpm [^125I] peptide YY (60 pM of final concentration: Amersham) were incubated in the assay buffer (20 mM HEPES-Hanks buffer containing 0.1% bovine serum albumin, pH 7.4) at 25° C. for 2 hours, and then the mixture was filtered with a glassfilter GF/C treated with polyethyleneimine. After the glassfilter was washed with 50 mM Tris-HCl buffer (pH 7.4), the radioactivity on the filter was measured with a gamma counter. The non-specific binding was detected in the presence of 200 nM of peptide YY. The 50% inhibitory concentration of the test compound against the specific peptide YY binding (IC50 value) was calculated (Inui, A. et al. Endocrinology 131, 2090-2096 (1992)).
# (§2) Using the membranes prepared from Y1-expression cells (human neuroblastoma, SK-N-MC) and the membranes prepared from Y2-expression cells (human neuroblastoma, SMS-KAN), the experiment was carried out in a similar way as Experiment 1 to determine the affinity for NPY Y1 receptor and NPY Y2 receptor.
# human NPY Y5 receptor [1] = molecular target: T2, human NPY Y5 receptor (Homo sapiens, UniProt Q15761); experiment: cAMP production inhibitory activity in CHO cells; format: cell-based; details: against 50 nM NPY inhibition of forskolin stimulated cAMP, CHO cells expressing human NPY Y5 receptor
# T2 construct: expressed in transfected cells
# T2 sequence (Q15761 1-445): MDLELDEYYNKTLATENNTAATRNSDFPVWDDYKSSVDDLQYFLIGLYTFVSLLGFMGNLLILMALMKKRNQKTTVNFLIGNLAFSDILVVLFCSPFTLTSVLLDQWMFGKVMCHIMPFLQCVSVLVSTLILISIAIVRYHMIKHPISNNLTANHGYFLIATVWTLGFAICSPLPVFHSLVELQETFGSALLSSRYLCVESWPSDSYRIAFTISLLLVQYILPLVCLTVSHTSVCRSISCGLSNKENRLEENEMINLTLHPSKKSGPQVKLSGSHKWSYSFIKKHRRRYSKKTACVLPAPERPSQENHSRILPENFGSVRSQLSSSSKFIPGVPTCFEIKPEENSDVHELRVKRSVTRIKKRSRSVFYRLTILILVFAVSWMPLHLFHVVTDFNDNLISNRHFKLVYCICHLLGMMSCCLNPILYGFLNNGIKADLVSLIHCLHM
# In short: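 CHO cells expressing human NPY Y5 receptor preincubated 20 min at 37 °C with 2.5 mM IBMX, then with compound for 5 min. Stimulated with 50 nM NPY plus 10 μM forskolin for 30 min. Reaction stopped with 1N HCl; supernatant cAMP measured by EIA.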
# human NPY Y5 receptor [2] = molecular target: T2, human NPY Y5 receptor; experiment: Affinity for NPY Y5 receptor ([125I] peptide YY binding, CHO cell membranes); details: inhibition of specific [125I] peptide YY binding, membranes of CHO cells expressing NPY Y5 receptor
# In short: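 Membranes from CHO cells stably expressing human NPY Y5 receptor incubated with test compound and [125I] peptide YY (60 pM final) in HEPES-Hanks buffer with 0.1% BSA, pH 7.4, 25° C for 2 hours. Filter-bound radioactivity counted; non-specific binding with 200 nM peptide YY; IC50 against specific binding calculated.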
# NPY Y1 receptor = molecular target: T3, NPY Y1 receptor (Homo sapiens, UniProt P25929); experiment: Affinity for NPY Y1 receptor (membranes from SK-N-MC cells); details: membranes from Y1-expression cells (human neuroblastoma, SK-N-MC); read-out: Binding IC50 for NPY Y1 receptor
# T3 construct: membranes prepared from Y1-expression cells (human neuroblastoma, SK-N-MC); endogenous in cells; host or cells: SK-N-MC human neuroblastoma cells (membranes)
# T3 sequence (P25929 1-384): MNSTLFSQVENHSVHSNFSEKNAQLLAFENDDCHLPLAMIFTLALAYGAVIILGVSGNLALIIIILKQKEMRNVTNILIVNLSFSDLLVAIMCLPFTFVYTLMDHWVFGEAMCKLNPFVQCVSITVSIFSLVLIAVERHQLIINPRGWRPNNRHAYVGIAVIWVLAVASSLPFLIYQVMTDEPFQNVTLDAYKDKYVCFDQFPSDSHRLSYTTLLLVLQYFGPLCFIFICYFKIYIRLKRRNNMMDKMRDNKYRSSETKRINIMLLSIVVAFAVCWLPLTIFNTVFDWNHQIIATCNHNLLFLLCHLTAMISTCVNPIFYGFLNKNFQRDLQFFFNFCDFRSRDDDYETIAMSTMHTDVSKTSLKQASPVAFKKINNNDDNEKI
# Procedure: as §1, §2
IC50 (NPY Y2 receptor) [nM],IC50 (human NPY Y5 receptor [1]) [nM],IC50 (human NPY Y5 receptor [2]) [nM],IC50 (NPY Y1 receptor) [nM],SMILES
≥ 100000,35,0.8,≥ 100000,CC(C)(C)S(=O)(=O)NC1CCC(C(=O)Nc2ccc(N3CC=CCC3)cc2)CC1 (centres unmarked) [Compound I-59]
≥ 100000,50,1.3,≥ 100000,CC(C)(C)S(=O)(=O)NC1CCC(C(=O)Nc2ccc(Br)cc2)CC1 (centres unmarked) [Compound I-63]
≥ 100000,80,2.2,≥ 100000,CC(C)(C)S(=O)(=O)NC1CCC(C(=O)Nc2ccc3c(c2)OCO3)CC1 (centres unmarked) [Compound I-64]
≥ 100000,2.1,2.3,≥ 100000,C[C@@H]1CN(c2ccc(NC(=O)[C@H]3CC[C@H](NS(=O)(=O)C(C)(C)C)CC3)cc2)C[C@H](C)O1 [Compound I-72]
≥ 100000,6.3,1,≥ 100000,CC(C)(C)S(=O)(=O)NC1CCC(C(=O)Nc2ccc3c(c2)CCC3)CC1 (centres unmarked) [Compound I-204]
≥ 100000,23,2.4,≥ 100000,CC(C)S(=O)(=O)NC1CCC(C(=O)Nc2ccc(N3C[C@@H](C)O[C@@H](C)C3)cc2)CC1 (some centres unmarked) [Ia-6]
≥ 100000,35,3.4,≥ 100000,C[C@@H]1CN(c2ccc(NC(=O)[C@H]3CC[C@H](NS(=O)(=O)C(C)(C)C)CC3)cc2F)C[C@H](C)O1 [Ia-21]
≥ 100000,38,3.1,≥ 100000,Cc1cc(NC(=O)[C@H]2CC[C@H](NS(=O)(=O)C(C)(C)C)CC2)ccc1N1C[C@@H](C)O[C@@H](C)C1 [Ia-22]
≥ 100000,27,1.9,≥ 100000,C[C@@H]1CN(c2ccc(NC(=O)C3CCC(NS(=O)(=O)C(C)(C)C)CC3)c(F)c2)C[C@H](C)O1 (some centres unmarked) [Ia-26]
≥ 100000,130,5.2,≥ 100000,Cc1cc(N2C[C@@H](C)O[C@@H](C)C2)ccc1NC(=O)C1CCC(NS(=O)(=O)C(C)(C)C)CC1 (some centres unmarked) [Ia-28]
≥ 100000,7.3,1,≥ 100000,C[C@@H]1CN(c2ccc(NC(=O)C3CCC(NS(=O)(=O)C(C)(C)C)CC3)c(F)c2F)C[C@H](C)O1 (some centres unmarked) [Ia-29]
≥ 100000,25,2.6,≥ 100000,C[C@@H]1CN(c2c(F)c(F)c(NC(=O)C3CCC(NS(=O)(=O)C(C)(C)C)CC3)c(F)c2F)C[C@H](C)O1 (some centres unmarked) [Ia-30]
≥ 100000,6.7,0.52,≥ 100000,CC(C)(C)S(=O)(=O)NC1CCC(C(=O)Nc2ccc(Cl)c(Cl)c2)CC1 (centres unmarked) [Ia-32]
≥ 100000,3.8,0.73,≥ 100000,C[C@@H]1C[C@H](C)CN(c2ccc(NC(=O)C3CCC(NS(=O)(=O)C(C)(C)C)CC3)cc2)C1 (some centres unmarked) [Ia-37]
≥ 100000,3.5,1.5,≥ 100000,COc1ccc(NC(=O)C2CCC(NS(=O)(=O)C(C)(C)C)CC2)cc1Cl (centres unmarked) [Ia-39]
≥ 100000,9.3,2.2,≥ 100000,C[C@@H]1CN(c2ccc(NC(=O)C3CCC(NS(=O)(=O)C(C)(C)C)CC3)cn2)C[C@H](C)O1 (some centres unmarked) [Ia-40]
≥ 100000,24,1.7,≥ 100000,Cc1cc(NC(=O)C2CCC(NS(=O)(=O)C(C)C)CC2)ccc1N1C[C@@H](C)O[C@@H](C)C1 (some centres unmarked) [Ia-50]
≥ 100000,3.4,1.3,≥ 100000,CC(C)S(=O)(=O)NC1CCC(C(=O)Nc2ccc(N3C[C@@H](C)O[C@@H](C)C3)nc2)CC1 (some centres unmarked) [Ia-51]

# The next lines start with the compound.
SMILES,IC50 (NPY Y2 receptor) [nM],IC50 (human NPY Y5 receptor [1]) [nM],IC50 (human NPY Y5 receptor [2]) [nM],IC50 (NPY Y1 receptor) [nM]
CC(C)(C)S(=O)(=O)NC1CCC(C(=O)Nc2ccc(-n3cccc3)cc2)CC1 (centres unmarked) [Compound I-61],≥ 100000,5.3,0.26,≥ 100000
Cc1cc(=O)oc2cc(NC(=O)C3CCC(NS(=O)(=O)C(C)(C)C)CC3)ccc12 (centres unmarked) [Compound I-66],≥ 100000,30,1.5,≥ 100000
CN(C)c1cccc(NC(=O)C2CCC(NS(=O)(=O)C(C)(C)C)CC2)c1 (centres unmarked) [Compound I-69],≥ 100000,13,3.8,≥ 100000
CC(C)(C)S(=O)(=O)NC1CCC(C(=O)NCCSc2cc(C(F)(F)F)nc3ccccc23)CC1 (centres unmarked) [Compound I-152],≥ 100000,46,0.88,≥ 100000
CC(C)(C)S(=O)(=O)NC1CCC(C(=O)NCc2cccc3ccccc23)CC1 (centres unmarked) [Compound I-154],≥ 100000,11,1.1,≥ 100000
CC(C)NC(=O)c1cccc(NC(=O)C2CCC(NS(=O)(=O)C(C)(C)C)CC2)c1 (centres unmarked) [Compound I-205],≥ 100000,17,2.9,≥ 100000
CC(C)(C)S(=O)(=O)NC1CCC(C(=O)Nc2ccc(C(F)(F)F)cc2)CC1 (centres unmarked) [Compound I-212],≥ 100000,7.5,0.67,≥ 100000
CC(C)S(=O)(=O)NCCCCC(=O)Nc1ccc(N2C[C@@H](C)O[C@@H](C)C2)cc1 [Ia-3],≥ 100000,150,9.2,≥ 100000
C[C@@H]1CN(c2ccc(NC(=O)CCCCNS(=O)(=O)C(C)(C)C)cc2)C[C@H](C)O1 [Ia-5],≥ 100000,43,1.6,≥ 100000
CCC(C)c1ccc(NC(=O)C2CCC(NS(=O)(=O)C(C)(C)C)CC2)cc1 (centres unmarked) [Ia-12],≥ 100000,5.5,0.94,≥ 100000
CC(C)(C)S(=O)(=O)NC1CCC(C(=O)Nc2ccc(OC(F)(F)F)cc2)CC1 (centres unmarked) [Ia-17],≥ 100000,1.9,0.1,≥ 100000
CC(C)(C)S(=O)(=O)NC1CCC(C(=O)Nc2cccc(F)c2)CC1 (centres unmarked) [Ia-20],≥ 100000,100,4.9,≥ 100000
CC(C)(C)S(=O)(=O)NC1CCC(C(=O)Nc2ccc(Cl)cc2Cl)CC1 (centres unmarked) [Ia-31],≥ 100000,11,3.8,≥ 100000
COc1ccc(NC(=O)C2CCC(NS(=O)(=O)C(C)(C)C)CC2)cc1OC (centres unmarked) [Ia-33],≥ 100000,64,1.8,≥ 100000
